Reference: patent US20250170126A1 (MITSUBISHI TANABE PHARMA CORPORATION, priority 2022, published 2025)
Where a name gives a salt, the structure may show the parent alone.

Target: Human B0AT1 (Homo sapiens (Human), UniProt Q695T7)
Experiment: hB0AT1 inhibitory test (phenylalanine uptake)
Type: cell-based
Conditions: Human B0AT1 stable expression CHO cells; [3H]-L-phenylalanine uptake, phenylalanine 0.25 mM
Method: A test compound dissolved in dimethyl sulfoxide (DMSO) was added to a 96 well plate for solid phase radioactivity measurement containing a scintillator at the bottom of the well (final concentration of DMSO 0.5%). DMSO alone as a control and DMSO containing N-(4-bromophenyl)-3,5-dichloro-2-hydroxybenzamide (final concentration […]) for the is measurement of B0AT1 non-specific uptake were similarly added at 0.5 μL per well. Human B0AT1 stable expression CHO cells suspended in a buffer (buffer containing 96 mM sodium chloride, 2 mM potassium chloride, 1.8 mM calcium chloride, 1 mM magnesium chloride, 0.01% bovine serum albumin, and 10 mM 2-[4-(2-hydroxyethyl)-1-piperazinyl]ethanesulfonic acid) were added by 90 μL to 75000 cells/well. After standing at ordinary temperature for 30 min or longer, the cells were subjected to a phenylalanine uptake experiment. A buffer containing L-phenylalanine and [3,4,5-3H]-L-phenylalanine was added by 10 μL per well (final concentration of phenylalanine 0.25 mM), and the radioactivity of the plate bottom surface at ordinary temperature was measured with a scintillation counter over time, and the radioactivity value after 100 to 200 min was analyzed. A value obtained by subtracting the B0AT1 non-specific uptake from the control uptake was taken as 100%, and the concentration necessary for each test compound to achieve 50% inhibition (IC50 value) was determined by nonlinear regression using a logistic model.

Human B0AT1, sequence (Q695T7 whole entry): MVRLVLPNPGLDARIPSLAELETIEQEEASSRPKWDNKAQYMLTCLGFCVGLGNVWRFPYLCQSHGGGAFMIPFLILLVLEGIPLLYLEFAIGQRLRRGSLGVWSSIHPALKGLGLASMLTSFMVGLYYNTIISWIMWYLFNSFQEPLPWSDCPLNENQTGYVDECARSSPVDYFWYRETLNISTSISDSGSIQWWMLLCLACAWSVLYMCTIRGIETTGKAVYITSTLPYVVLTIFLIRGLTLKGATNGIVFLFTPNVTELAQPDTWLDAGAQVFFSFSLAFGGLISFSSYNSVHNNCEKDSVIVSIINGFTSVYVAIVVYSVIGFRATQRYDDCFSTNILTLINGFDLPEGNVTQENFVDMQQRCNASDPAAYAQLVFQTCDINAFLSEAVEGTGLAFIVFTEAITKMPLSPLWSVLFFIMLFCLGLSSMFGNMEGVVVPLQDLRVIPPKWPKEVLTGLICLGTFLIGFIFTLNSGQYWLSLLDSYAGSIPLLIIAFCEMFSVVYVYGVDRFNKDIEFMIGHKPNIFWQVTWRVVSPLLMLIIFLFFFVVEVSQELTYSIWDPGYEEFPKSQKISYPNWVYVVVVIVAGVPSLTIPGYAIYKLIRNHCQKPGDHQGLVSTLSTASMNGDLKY

Row | IC50 [nM] | SMILES
1 | 69 | O=C(/C=C/c1ccc(C(F)(F)F)cc1)NCC(=O)N1CCNCC1 [I-133, (E)-N-(2-oxo-2-piperazin-1-ylethyl)-3-[4-(trifluoromethyl)phenyl]prop-2-enamide hydrochloride]
2 | 81 | O=C(/C=C/c1ccc(C(F)(F)F)cc1)NCC(=O)N1CCN(CCO)CC1 [I-25]
3 | 66 | O=C(/C=C/c1ccc(C(F)(F)F)cc1)NCC(=O)N1CCn2nc(C(=O)O)c(-c3ccc(C(F)(F)F)cc3)c2C1 [I-265]
4 | 43 | NS(=O)(=O)c1ccc2c(c1)CCN(C(=O)CNC(=O)/C=C/c1ccc(C(F)(F)F)cc1)C2 [I-220]
5 | 70 | O=C(/C=C/c1ccc(C(F)(F)F)cc1)NCC(=O)N1Cc2cccnc2C1 [I-65]
6 | 20 | COc1cc2c(cn1)CN(C(=O)CNC(=O)/C=C/c1ccc(C(F)(F)F)cc1)CC2 [I-92]
7 | 24 | CN1CCN(C(=O)CNC(=O)/C=C/c2ccc(C(F)(F)F)cc2)C(c2ccccc2)C1 (stereo not drawn) [I-45]
8 | 30 | O=C(/C=C/c1ccc(C(F)(F)F)cc1)NCC(=O)N1CCn2nc(CO)cc2C1 [I-173, (E)-N-[2-[2-(hydroxymethyl)-6,7-dihydro-4H-pyrazolo[1,5-a]pyrazin-5-yl]-2-oxo-ethyl]-3-[4-(trifluoromethyl)phenyl]prop-2-enamide]
9 | 803 | CCOCCN(CCOCC)C(=O)CNC(=O)/C=C/c1ccc(C(F)(F)F)cc1 [I-10]
10 | 406 | CN1CCN(C(=O)CNC(=O)/C=C/c2ccc(C(F)(F)F)cc2)[C@@H](C(=O)N(C)C)C1 [I-138, (2R)-N,N,4-trimethyl-1-[2-[[(E)-3-[4-(trifluoromethyl)phenyl]prop-2-enoyl]amino]acetyl]piperazine-2-carboxamide]
11 | 60 | O=C(/C=C/c1ccc(C(F)(F)F)cc1)NCC(=O)N1Cc2nccnc2C1 [I-178]
12 | 114 | COC1CN(C(=O)CNC(=O)/C=C/c2ccc(C(F)(F)F)cc2)Cc2ccc(Br)cc21 (stereo not drawn) [I-217]
13 | 262 | CCN(CCOC)C(=O)CNC(=O)/C=C/c1ccc(C(F)(F)F)cc1 [I-5]
14 | 87 | O=C(/C=C/c1ccc(C(F)(F)F)cc1)NCC(=O)N1CC(=O)NC(c2ccccc2)C1 (single isomer, unassigned) [I-136, (E)-N-[2-oxo-2-[3-oxo-5-phenylpiperazin-1-yl]ethyl]-3-[4-(trifluoromethyl)phenyl]prop-2-enamide]
15 | 24 | CC1CN(C(=O)CNC(=O)/C=C/c2ccc(C(F)(F)F)cc2)CCN1C (stereo not drawn) [I-6]
16 | 36 | COc1nccc2c1CN(C(=O)CNC(=O)/C=C/c1ccc(C(F)(F)F)cc1)CC2 [I-91]
17 | 30 | N#Cc1cccc2c1CCN(C(=O)CNC(=O)/C=C/c1ccc(C(F)(F)F)cc1)C2 [I-192]
18 | 26 | O=C(/C=C/c1ccc(C(F)(F)F)cc1)NCC(=O)N1CCn2nc(C(F)F)cc2C1 [I-282, (E)-N-[2-[2-(difluoromethyl)-6,7-dihydro-4H-pyrazolo [1,5-a]pyrazin-5-yl]-2-oxoethyl]-3-[4-(trifluoromethyl)phenyl]prop-2-enamide]
19 | 23 | O=C(/C=C/c1ccc(C(F)(F)F)cc1)NCC(=O)N1CCCn2nccc21 [I-86]
20 | 1750 | O=C(/C=C/c1ccc(C(F)(F)F)cc1)NCC(=O)N1CCCNC(=O)C1 [I-16]
21 | 1930 | Cc1nnc([C@H]2CN(C(=O)CNC(=O)/C=C/c3ccc(C(F)(F)F)cc3)CCN2C)o1 [I-131, (E)-N-[2-[(3R)-4-methyl-3-(5-methyl-1,3,4-oxadiazol-2-yl)piperazin-1-yl]-2-oxoethyl]-3-[4-(trifluoromethyl)phenyl]prop-2-enamide]

Row | IC50 [nM] | SMILES
22 | 298 | COCCN(C)C(=O)CN(CCOC)C(=O)CNC(=O)/C=C/c1ccc(C(F)(F)F)cc1 [I-147, (E)-N-[2-[2-methoxyethyl-[2-[2-methoxyethyl(methyl)amino]-2-oxoethyl]amino]-2-oxoethyl]-3-[4-(trifluoromethyl)phenyl]prop-2-enamide]
23 | 319 | O=C(/C=C/c1ccc(C(F)(F)F)cc1)NCC(=O)N1CCN2C(=O)OC[C@@H]2C1 [I-33]
24 | 34 | CS(=O)(=O)Nc1ccc2c(c1)CCN(C(=O)CNC(=O)/C=C/c1ccc(C(F)(F)F)cc1)C2 [I-188]
25 | 81 | Cc1nc2c(s1)CN(C(=O)CNC(=O)/C=C/c1ccc(C(F)(F)F)cc1)C2 [I-61]
26 | 1700 | CN(C)C(=O)[C@H]1CCN(C(=O)CNC(=O)/C=C/c2ccc(C(F)(F)F)cc2)C1 [I-145, (3S)-N,N-dimethyl-1-[2-[[(E)-3-[4-(trifluoromethyl)phenyl]prop-2-enoyl]amino]acetyl]pyrrolidine-3-carboxamide]
27 | 34 | O=C(/C=C/c1ccc(C(F)(F)F)cc1F)NCC(=O)N1CCc2cc(Br)cc(F)c2C1 [I-236]
28 | 168 | CC1CN(C(=O)CNC(=O)/C=C/c2ccc(C(F)(F)F)cc2)Cc2ccccc21 (stereo not drawn) [I-182]
29 | 42 | O=C(/C=C/c1ccc(C(F)(F)F)cc1)NCC(=O)N1CCn2nncc2C1 [I-80]
30 | 53 | O=C(/C=C/c1ccc(C(F)(F)F)cc1)NCC(=O)N1CCc2[nH]ncc2C1 [I-76]
31 | 124 | O=C(/C=C/c1ccc(C(F)(F)F)cc1)NCC(=O)N1CCCc2ccccc21 [I-87]
32 | 185 | O=C(/C=C/c1ccc(C(F)(F)F)cc1)NCC(=O)N1CC[C@H](n2cccn2)C1 [I-176]
33 | 282 | COCCN(C(=O)CNC(=O)/C=C/c1ccc(C(F)(F)F)cc1)C(C)COC (stereo not drawn) [I-11]
34 | 77 | O=C(/C=C/c1ccc(C(F)(F)F)cc1)NCC(=O)N1Cc2ncsc2C1 [I-62]
35 | 54 | COCCN(Cc1cc(OC)ccn1)C(=O)CNC(=O)/C=C/c1ccc(C(F)(F)F)cc1 [I-53]
36 | 88 | CNC(=O)c1nc2n(n1)CCN(C(=O)CNC(=O)/C=C/c1ccc(C(F)(F)F)cc1)C2 [I-205]
37 | 71 | CNC(=O)c1nn2c(c1Br)CN(C(=O)CNC(=O)/C=C/c1ccc(C(F)(F)F)cc1)CC2 [I-279]
38 | 1590 | O=C(/C=C/c1ccc(C(F)(F)F)cc1)NCC(=O)N1CCS(=O)(=O)CC1 [I-9]
39 | 486 | CNC(=O)CC(COC)N(CCOC)C(=O)CNC(=O)/C=C/c1ccc(C(F)(F)F)cc1 (stereo not drawn) [I-130, 4-methoxy-3-[2-methoxyethyl-[2-[[(E)-3-[4-(trifluoromethyl)phenyl]prop-2-enoyl]amino]acetyl]amino]-N-methylbutanamide]
40 | 91 | O=C(/C=C/c1ccc(C(F)(F)F)cc1)NCC(=O)N1CCn2cc(C(F)(F)F)nc2C1 [I-37]
41 | 285 | COCCN(CCOC)C(=O)CNC(=O)/C=C/c1ccc(C(F)(F)F)cc1 [I-4]
42 | 228 | O=C(/C=C/c1ccc(C(F)(F)F)cc1)NCC(=O)N1CCC(n2cccn2)CC1 [I-73]

Row | IC50 [nM] | SMILES
43 | 270 | O=C(/C=C/c1ccc(C(F)(F)F)cc1)NCC(=O)N1CCc2nncn2CC1 [I-20]
44 | 43 | Cc1nnc(CN(CC2(F)CCC2)C(=O)CNC(=O)/C=C/c2ccc(C(F)(F)F)cc2)o1 [I-212]
45 | 175 | CN1CCN(C(=O)CNC(=O)/C=C/c2ccc(C(F)(F)F)cc2)[C@H](C(=O)O)C1 [I-123, (2S)-4-methyl-1-[2-[[(E)-3-[4-(trifluoromethyl)phenyl]prop-2-enoyl]amino]acetyl]piperazine-2-carboxylic acid]
46 | 41 | CCN(CC)C(=O)c1cnn2c1CN(C(=O)CNC(=O)/C=C/c1ccc(C(F)(F)F)cc1)CC2 [I-223]
47 | 65 | O=C(/C=C/c1ccc(C(F)(F)F)cc1)NCC(=O)N1CCn2ccnc2C1 [I-21]
48 | 35 | NS(=O)(=O)c1ccc2c(c1)CN(C(=O)CNC(=O)/C=C/c1ccc(C(F)(F)F)cc1)CC2 [I-189]
49 | 81 | Cc1nnc([C@H]2CN(C)CCN2C(=O)CNC(=O)/C=C/c2ccc(C(F)(F)F)cc2)o1 [I-121]
50 | 136 | Cn1cc2c(n1)CN(C(=O)CNC(=O)/C=C/c1ccc(C(F)(F)F)cc1)C2 [I-70]
51 | 536 | COCCN(CC1CCCO1)C(=O)CNC(=O)/C=C/c1ccc(C(F)(F)F)cc1 (stereo not drawn) [I-48]
52 | 38 | CN1CCN(C(=O)CNC(=O)/C=C/c2ccc(-c3ccc(F)cc3)cc2)CC1 [I-126, (E)-3-[4-(4-fluorophenyl)phenyl]-N-[2-(4-methylpiperazin-1-yl)-2-oxoethyl]prop-2-enamide]
53 | 212 | O=C(/C=C/c1ccc(C(F)(F)F)cc1)NCC(=O)N1CCN2C(=O)OC[C@H]2C1 [I-32]
54 | 64 | Cn1cc2c(n1)CCN(C(=O)CNC(=O)/C=C/c1ccc(C(F)(F)F)cc1)C2 [I-82]
55 | 96 | COCCN(Cc1nc(C)c(C)s1)C(=O)CNC(=O)/C=C/c1ccc(C(F)(F)F)cc1 [I-57]
56 | 195 | CN1CCN(C(=O)CNC(=O)/C=C/c2ccc(C(F)(F)F)cc2)CC1=O [I-17]
57 | 26 | CC1CCN(C(=O)CNC(=O)/C=C/c2ccc(C(F)(F)F)cc2)c2ccnn21 (stereo not drawn) [I-187]
58 | 17 | O=C(/C=C/c1ccc(C(F)(F)F)cc1)NCC(=O)N1CCc2cccc(Br)c2C1 [I-196]
59 | 925 | CN1CCN(C(=O)CNC(=O)/C=C/c2ccc(OCC3CC3)cc2)CC1 [I-114]
60 | 51 | Cn1nc2n(c1=O)CCN(C(=O)CNC(=O)/C=C/c1ccc(C(F)(F)F)cc1)C2 [I-79]
61 | 720 | CCOC(=O)N1CCN(C(=O)CNC(=O)/C=C/c2ccc(C(F)(F)F)cc2)CC1 [I-27]
62 | 55 | O=C(/C=C/c1ccc(C(F)(F)F)cc1)NCC(=O)N1CCc2cc(C(=O)O)ncc2C1 [I-264]
63 | 141 | Cn1cnc2c1CN(C(=O)CNC(=O)/C=C/c1ccc(C(F)(F)F)cc1)C2 [I-67]
